Assay results taken from US20060069123A1, “Substituted dipiperidine CCR2 antagonists” (priority 2004, published 2006).
pIC50: −log10 of the molar value. Like-named read-outs stand apart in the source and are kept apart here.

Legend:
THP-1 cells [1] = assay: MCP-1 Induced Chemotaxis in THP-1 Cells; type: cell-based; conditions: read-out: Inhibition of MCP-1 Induced Chemotaxis IC50
THP-1 cells [2] = test system: THP-1 cells
CCR2 = biological target: T1, CCR2 (Homo sapiens, UniProt P41597); conditions: for Inhibition of MCP-1 Binding, percent inhibition: test concentration of 25 μM, IC50 not obtained
T1 sequence (P41597 1-360 isoform P41597-2): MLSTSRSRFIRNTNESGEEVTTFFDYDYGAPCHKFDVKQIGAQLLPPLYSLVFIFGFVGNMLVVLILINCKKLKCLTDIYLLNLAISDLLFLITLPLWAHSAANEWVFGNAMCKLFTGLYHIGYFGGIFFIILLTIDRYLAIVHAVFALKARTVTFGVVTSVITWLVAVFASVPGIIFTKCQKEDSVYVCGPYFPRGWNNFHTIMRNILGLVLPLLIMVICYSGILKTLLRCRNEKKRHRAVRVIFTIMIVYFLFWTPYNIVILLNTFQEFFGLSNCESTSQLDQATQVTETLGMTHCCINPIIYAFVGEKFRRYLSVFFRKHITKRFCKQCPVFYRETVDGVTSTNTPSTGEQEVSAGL

[3] = Homo sapiens, THP-1, read-out: Inhibition of MCP-1 Induced Calcium Ion Influx IC50
[4] = Homo sapiens, THP-1 cells, MCP-1 0.01 μg/mL, 3 hours
[5] = THP-1 cells, MCP-1 0.01 μg/mL, 3 hours
[6] = read-out: Inhibition of MCP-1 Induced Calcium Ion Influx IC50, THP-1 cells, 0.2 μM MCP-1, FLIPR
[7] = Homo sapiens, THP-1, read-out: Inhibition of MCP-1 Induced Calcium Ion Influx IC50, THP-1 cells, 0.2 μM MCP-1, FLIPR

Compound	pIC50 (THP-1 cells [2]; [3])	pIC50 (CCR2)	pIC50 (THP-1 cells [1]; [4])	other results
O=C(O)[C@@H](C1CCN(C(=O)/C=C/c2cc(F)c(F)c(F)c2)CC1)N1CCC(c2c[nH]c3ccccc23)CC1 [Cpd 14]	5.95			pIC50 (THP-1 cells [1]; Homo sapiens, THP-1, 3 h): 7.15
COC(=O)C(C1CCN(C(=O)/C=C/c2cc(F)c(F)c(F)c2)CC1)N1CCC(c2c[nH]c3ccccc23)CC1 (stereo not drawn) [Cpd 87, [4-(1H-indol-3-yl)-piperidin-1-yl]-{1-[(2E)-3-(3,4,5-trifluoro-phenyl)-acryloyl]-piperidin-4-yl}-acetic acid methyl ester]	6.44			pIC50 (THP-1 cells [1]; Homo sapiens, THP-1, 3 h): 6.00
Cc1ccc(NC(=O)N2CCC(C(C(=O)O)N3CCC(c4c[nH]c5ccccc45)CC3)CC2)cc1C (stereo not drawn) [Cpd 100, [1-(3,4-dimethyl-phenylcarbamoyl)-piperidin-4-yl]-[4-(1H-indol-3-yl)-piperidin-1-yl]-acetic acid]	6.32			pIC50 (THP-1 cells [1]; Homo sapiens, THP-1, 3 h): 6.03
COc1ccc2c(C3CCN(C(CO)C4CCN(C(=O)/C=C/c5cc(F)c(F)c(F)c5)CC4)CC3)c[nH]c2c1 (stereo not drawn) [Cpd 132, (2E)-1-(4-{2-hydroxy-1-[4-(6-methoxy-1H-indol-3-yl)-piperidin-1-yl]-ethyl}-piperidin-1-yl)-3-(3,4,5-trifluoro-phenyl)-propenone]				pIC50 (THP-1 cells [1]; [5]): 7.15; pIC50 (THP-1 cells [2]; [6]): 8.52
COc1ccc2c(C3CCN(C(CO)C4CCN(C(=O)/C=C/c5cc(F)c(F)c(F)c5)CC4)CC3)c[nH]c2c1 (stereo not drawn) [Cpd 167, (2E)-1-(4-{2-hydroxy-1-[4-(6-methoxy-1H-indol-3-yl)-piperidin-1-yl]-ethyl}-piperidin-1-yl)-3-(3,4,5-trifluoro-phenyl)-propenone]				pIC50 (THP-1 cells [1]; [5]): 7.52; pIC50 (THP-1 cells [2]; [6]): 7.52
O=C(/C=C/c1ccc(Cl)c(Cl)c1)N1CCC(C(CO)N2CCC(c3c[nH]c4ncccc34)CC2)CC1 (stereo not drawn) [Cpd 208, (2E)-3-(3,4-dichloro-phenyl)-1-(4-{2-hydroxy-1-[4-(1H-pyrrolo[2,3-b]pyridin-3-yl)-piperidin-1-yl]-ethyl}-piperidin-1-yl)-propenone]				pIC50 (THP-1 cells [1]; Homo sapiens, THP-1, 3 h, THP-1 cells, MCP-1 0.01 μg/mL, 3 hours): 7.89; pIC50 (THP-1 cells [2]; [7]): 9.10
NC(=O)C(C1CCN(C(=O)/C=C/c2cc(F)c(F)c(F)c2)CC1)N1CCC(c2c[nH]c3ncccc23)CC1 (stereo not drawn) [Cpd 227, 2-[4-(1H-pyrrolo[2,3-b]pyridin-3-yl)-piperidin-1-yl]-2-{1-[(2E)-3-(3,4,5-trifluoro-phenyl)-acryloyl]-piperidin-4-yl}-acetamide]				pIC50 (CCR2; Inhibition of MCP-1 Binding IC50, 125I labeled MCP-1 binding to CCR2, THP-1 cells): 6.02; pIC50 (THP-1 cells [2]; [7]): 6.06
O=C(C=Cc1ccc(Cl)c(Cl)c1)N1CCC(C(CO)N2CCC(c3ccc(Cl)cc3)CC2)CC1 (stereo not drawn) [Cpd 244, (2E)-1-(4-{1-[4-(4-chloro-phenyl)-piperidin-1-yl]-2-hydroxy-ethyl}-piperidin-1-yl)-3-(3,4-dichloro-phenyl)-propenone]	7.10	6.59		
O=C(/C=C/c1ccc(Cl)c(Cl)c1)N1CCC(C(CCl)N2CCC(c3ccc(Cl)cc3)CC2)CC1 (stereo not drawn) [Cpd 245]	6.40	5.66		
O=C(C=Cc1cc(F)c(F)c(F)c1)N1CCC(C(CO)N2CCC(c3ccc(Cl)cc3)CC2)CC1 (stereo not drawn) [Cpd 246, (2E)-1-(4-{1-[4-(4-chloro-phenyl)-piperidin-1-yl]-2-hydroxy-ethyl}-piperidin-1-yl)-3-(3,4,5-trifluoro-phenyl)-propenone]	7.70	7.15		
COc1ccc(C2CCN(C(CO)C3CCN(C(=O)C#Cc4cc(F)c(F)c(F)c4)CC3)CC2)cc1 (stereo not drawn) [Cpd 253, 1-(4-{2-hydroxy-1-[4-(4-methoxy-phenyl)-piperidin-1-yl]-ethyl}-piperidin-1-yl)-3-(3,4,5-trifluoro-phenyl)-propynone]				Inhibition of MCP-1 Binding, percent inhibition (CCR2): 42%; pIC50 (THP-1 cells [2]; [6]): 5.41
O=C(/C=C/c1cc(F)cc(F)c1)N1CCC(C(CO)N2CCC(c3nc4cc(Cl)c(Cl)cc4[nH]3)CC2)CC1 (stereo not drawn) [Cpd 256, (2E)-1-(4-{1-[4-(5,6-dichloro-1H-benzoimidazol-2-yl)-piperidin-1-yl]-2-hydroxy-ethyl}-piperidin-1-yl)-3-(3,5-difluoro-phenyl)-propenone]				Inhibition of MCP-1 Binding, percent inhibition (CCR2): 25%; pIC50 (THP-1 cells [2]; [6]): 4.96
O=C(/C=C/c1ccc(Cl)cc1)N1CCC(C(CO)N2CCC(c3ccc(Cl)cc3)CC2)CC1 (stereo not drawn) [Cpd 258, (2E)-3-(4-chloro-phenyl)-1-(4-{1-[4-(4-chloro-phenyl)-piperidin-1-yl]-2-hydroxy-ethyl}-piperidin-1-yl)-propenone]	5.64	6.70		

The next lines start with results.

pIC50 (THP-1 cells [2]; [3])	pIC50 (CCR2)	pIC50 (THP-1 cells [1]; [4])	Compound	other results
6.92	6.45	5.80	O=C(O)C(C1CCN(C(=O)Nc2cc(F)cc(C(F)(F)F)c2)CC1)N1CCC(c2c[nH]c3ccccc23)CC1 (stereo not drawn) [Cpd 65, [1-(3-fluoro-5-trifluoromethyl-phenylcarbamoyl)-piperidin-4-yl]-[4-(1H-indol-3-yl)-piperidin-1-yl]-acetic acid]	
6.39		6.62	O=C(O)C(C1CCN(C(=O)Nc2ccc(Cl)cc2)CC1)N1CCC(c2c[nH]c3ccccc23)CC1 (stereo not drawn) [Cpd 88, [1-(4-chloro-phenylcarbamoyl)-piperidin-4-yl]-[4-(1H-indol-3-yl)-piperidin-1-yl]-acetic acid]	
6.33	7.02	6.68	O=C(O)C(C1CCN(C(=O)Nc2ccc(Br)cc2)CC1)N1CCC(c2c[nH]c3ccccc23)CC1 (stereo not drawn) [Cpd 89, [1-(4-bromo-phenylcarbamoyl)-piperidin-4-yl]-[4-(1H-indol-3-yl)-piperidin-1-yl]-acetic acid]	
6.05	6.52	6.57	O=C(O)C(C1CCN(C(=O)Nc2cccc(F)c2)CC1)N1CCC(c2c[nH]c3ccccc23)CC1 (stereo not drawn) [Cpd 91, [1-(3-fluoro-phenylcarbamoyl)-piperidin-4-yl]-[4-(1H-indol-3-yl)-piperidin-1-yl]-acetic acid]	
6.01	6.60	6.64	O=C(O)C(C1CCN(C(=O)Nc2cccc(C(F)(F)F)c2)CC1)N1CCC(c2c[nH]c3ccccc23)CC1 (stereo not drawn) [Cpd 97, [4-(1H-indol-3-yl)-piperidin-1-yl]-[1-(3-trifluoromethyl-phenylcarbamoyl)-piperidin-4-yl]-acetic acid]	
5.73	6.05	5.66	Cc1cccc(NC(=O)N2CCC(C(C(=O)O)N3CCC(c4c[nH]c5ccccc45)CC3)CC2)c1 (stereo not drawn) [Cpd 98, [4-(1H-indol-3-yl)-piperidin-1-yl]-(1-m-tolylcarbamoyl-piperidin-4-yl)-acetic acid]	
5.80	6.09	5.60	Cc1ccc(NC(=O)N2CCC(C(C(=O)O)N3CCC(c4c[nH]c5ccccc45)CC3)CC2)cc1 (stereo not drawn) [Cpd 99, [4-(1H-indol-3-yl)-piperidin-1-yl]-(1-p-tolylcarbamoyl-piperidin-4-yl)-acetic acid]	
6.89	7.70	6.85	Cc1cc(NC(=O)N2CCC(C(C(=O)O)N3CCC(c4c[nH]c5ccccc45)CC3)CC2)ccc1Br (stereo not drawn) [Cpd 101, [1-(4-bromo-3-methyl-phenylcarbamoyl)-piperidin-4-yl]-[4-(1H-indol-3-yl)-piperidin-1-yl]-acetic acid]	
6.07	6.59	6.64	Cc1cc(NC(=O)N2CCC(C(C(=O)O)N3CCC(c4c[nH]c5ccccc45)CC3)CC2)ccc1F (stereo not drawn) [Cpd 102, [1-(4-fluoro-3-methyl-phenylcarbamoyl)-piperidin-4-yl]-[4-(1H-indol-3-yl)-piperidin-1-yl]-acetic acid]	
6.31	7.15	7.05	O=C(O)C(C1CCN(C(=O)/C=C/c2cccs2)CC1)N1CCC(c2c[nH]c3ccccc23)CC1 (stereo not drawn) [Cpd 103, [4-(1H-indol-3-yl)-piperidin-1-yl]-{1-[(2E)-3-thiophen-2-yl-acryloyl]-piperidin-4-yl}-acetic acid]	
8.10		8.00	O=C(/C=C/c1cccc(C(F)(F)F)c1)N1CCC(C(CO)N2CCC(c3c[nH]c4ccccc34)CC2)CC1 (stereo not drawn) [Cpd 119, (2E)-1-(4-{2-hydroxy-1-[4-(1H-indol-3-yl)-piperidin-1-yl]-ethyl}-piperidin-1-yl)-3-(3-trifluoromethyl-phenyl)-propenone]	
7.05		6.77	CC(=O)NCC(C1CCN(C(=O)/C=C/c2cc(F)c(F)c(F)c2)CC1)N1CCC(c2c[nH]c3ccccc23)CC1 (stereo not drawn) [Cpd 213, N-(2-[4-(1H-indol-3-yl)-piperidin-1-yl]-2-{1-[(2E)-3-(3,4,5-trifluoro-phenyl)-acryloyl]-piperidin-4-yl}-ethyl)-acetamide]	
6.02	6.36		O=CNCC(C1CCN(C(=O)/C=C/c2cc(F)c(F)c(F)c2)CC1)N1CCC(c2c[nH]c3ccccc23)CC1 (stereo not drawn) [Cpd 220]	
5.74	6.18		CCNC(=O)NCC(C1CCN(C(=O)/C=C/c2ccc(F)c(Br)c2)CC1)N1CCC(c2c[nH]c3ccccc23)CC1 (stereo not drawn) [Cpd 233]	
